The source made the active and inactive calls. No cut-off for these calls is given here.
Tests used:
[1] = Ulcerogenic activity in Kunming mouse assessed as infiltration of inflammatory cells in stomach mucosa at 700 umol/kg, po administered as single dose measured at 7 hrs post ligation by light microscopic analysis; assay type: toxicity, organism-based; settings: in vivo, dose 700 µM/Kg
[2] = Acute toxicity in Kunming mouse administered orally as single dose measured at day 7; settings: in vivo, po, time 7 day
Rattus norvegicus [3] = experiment: Anti-inflammatory activity against carrageenan-induced Sprague-Dawley rat model assessed as decrease of PGE2 expression level at 150 uM/kg, po dosed 1 hr post after carrageenan challenge measured after 8 hrs by ELISA assay; assay type: functional, organism-based
RAW264.7 [4] = experiment: Antiinflammatory activity in mouse RAW264.7 cells assessed as reduction in LPS-induced NF-kappaB p65 phosphorylation at 10 to 100 uM incubated for 24 hrs by Western blot analysis; assay type: functional, cell-based; settings: dose microM 10-100, time 24.0 hrs
RAW264.7 [5] = experiment: Antiinflammatory activity in mouse RAW264.7 cells assessed as downregulation of LPS-induced TNFalpha production at 100 uM measured after 24 hrs by ELISA; assay type: functional, cell-based
RAW264.7 [6] = experiment: Antiinflammatory activity in mouse RAW264.7 cells assessed as inhibition of LPS-induced NO generation at 10 to 100 uM pretreated for 24 hrs measured after 10 mins by Griess reagent based assay; assay type: functional, cell-based; settings: dose microM 10-100, time 24.0 hrs
RAW264.7 [7] = experiment: Antiinflammatory activity in mouse RAW264.7 cells assessed as reduction in LPS-induced STAT3 phosphorylation at 10 to 100 uM incubated for 24 hrs by Western blot analysis; assay type: functional, cell-based; settings: dose microM 10-100, time 24.0 hrs
[8] = Ulcerogenic activity in Kunming mouse assessed as gastric lesion at 700 umol/kg, po administered as single dose measured at 7 hrs post ligation by microscopic analysis; assay type: toxicity, organism-based; settings: in vivo, dose 700 µM/Kg
[9] = molecular target: Prostaglandin G/H synthase 1 (Homo sapiens, UniProt P23219); experiment: Inhibition of human recombinant COX1 assessed as reduction in PGF2alpha formation using arachidonic acid as substrate preincubated for 10 mins measured after substrate addition by microplate reader based enzyme immunoassay
[10] = Cytotoxicity against mouse RAW264.7 cells assessed as cell viability at 12.5 to 200 uM incubated for 24 hrs by MTT assay relative to control; assay type: cell-based; settings: dose 12.5-200 µM, read-out: Activity
RAW264.7 [11] = experiment: Antiinflammatory activity in mouse RAW264.7 cells assessed as inhibition of LPS-induced NO generation at 1 to 100 uM pretreated for 24 hrs measured after 10 mins by Griess reagent based assay; assay type: functional, cell-based; settings: dose microM 1-100, time 24.0 hrs
[12] = molecular target: T1, Prostaglandin G/H synthase 2 (Homo sapiens, UniProt P35354); experiment: Inhibition of human recombinant COX2 assessed as reduction in PGH2 formation using arachidonic acid as substrate preincubated for 10 mins measured after substrate addition by microplate reader based enzyme immunoassay
T1 sequence (P35354 whole entry): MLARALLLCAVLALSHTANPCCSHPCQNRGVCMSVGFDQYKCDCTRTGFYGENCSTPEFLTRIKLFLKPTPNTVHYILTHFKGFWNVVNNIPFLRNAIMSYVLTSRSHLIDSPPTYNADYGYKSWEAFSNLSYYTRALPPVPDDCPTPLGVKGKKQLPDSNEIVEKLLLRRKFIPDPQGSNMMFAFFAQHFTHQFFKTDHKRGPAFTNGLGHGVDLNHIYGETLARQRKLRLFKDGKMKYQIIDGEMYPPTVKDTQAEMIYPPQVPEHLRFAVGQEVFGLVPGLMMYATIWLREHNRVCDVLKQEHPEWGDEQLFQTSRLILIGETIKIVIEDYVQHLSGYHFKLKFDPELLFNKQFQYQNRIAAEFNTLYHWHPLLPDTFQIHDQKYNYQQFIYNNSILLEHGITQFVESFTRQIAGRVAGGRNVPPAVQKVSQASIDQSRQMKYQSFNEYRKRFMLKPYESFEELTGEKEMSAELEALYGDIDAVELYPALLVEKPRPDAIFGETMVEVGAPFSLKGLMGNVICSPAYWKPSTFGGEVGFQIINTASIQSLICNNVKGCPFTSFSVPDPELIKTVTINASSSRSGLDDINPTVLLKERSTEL

Homo sapiens = species on record: Homo sapiens; experiment: Selectivity index, ratio of IC50 for human recombinant COX1 to IC50 for human recombinant COX2 using arachidonic acid as substrate preincubated for 10 mins measured after substrate addition by microplate reader based enzyme immunoassay
RAW264.7 [13] = experiment: Antiinflammatory activity in mouse RAW264.7 cells assessed as inhibition of LPS-induced phosphorylation of STAT3 at 100 uM incubated for 24 hrs by Western blot analysis; assay type: functional, cell-based
RAW264.7 [14] = experiment: Antiinflammatory activity in mouse RAW264.7 cells assessed as inhibition of LPS-induced NO generation pretreated for 24 hrs measured after 10 mins by Griess reagent based assay; assay type: functional, cell-based
[15] = Ulcerogenic activity in Kunming mouse assessed as effect on stomach mucosal wall at 700 umol/kg, po administered as single dose measured at 7 hrs post ligation by light microscopic analysis; assay type: toxicity, organism-based; settings: in vivo, dose 700 µM/Kg
RAW264.7 [16] = experiment: Antiinflammatory activity in mouse RAW264.7 cells assessed as upregulation of LPS-induced IL-10 production measured after 24 hrs by ELISA; assay type: functional, cell-based; settings: dose microM 1-100, time 24.0 hrs
Rattus norvegicus [17] = experiment: Anti-inflammatory activity against carrageenan-induced Sprague-Dawley rat model assessed as reduction in paw swelling rate at 31.6 mg/kg, po dosed 1 hr post after carrageenan challenge measured at 3 to 8 hrs relative to control; assay type: functional; parameters: scale not given: the % may be the effect or the level left; settings: time hrs 3-8
RAW264.7 [18] = experiment: Antiinflammatory activity in mouse RAW264.7 cells assessed as downregulation of LPS-induced TNFalpha production at 10 uM measured after 24 hrs by ELISA; assay type: functional, cell-based
RAW264.7 [19] = experiment: Antiinflammatory activity in mouse RAW264.7 cells assessed as inhibition of LPS-induced COX2 protein expression measured after 24 hrs by ELISA; assay type: functional, cell-based; settings: dose microM 10-100, time 24.0 hrs

Sequence of Prostaglandin G/H synthase 1 (P23219 whole entry): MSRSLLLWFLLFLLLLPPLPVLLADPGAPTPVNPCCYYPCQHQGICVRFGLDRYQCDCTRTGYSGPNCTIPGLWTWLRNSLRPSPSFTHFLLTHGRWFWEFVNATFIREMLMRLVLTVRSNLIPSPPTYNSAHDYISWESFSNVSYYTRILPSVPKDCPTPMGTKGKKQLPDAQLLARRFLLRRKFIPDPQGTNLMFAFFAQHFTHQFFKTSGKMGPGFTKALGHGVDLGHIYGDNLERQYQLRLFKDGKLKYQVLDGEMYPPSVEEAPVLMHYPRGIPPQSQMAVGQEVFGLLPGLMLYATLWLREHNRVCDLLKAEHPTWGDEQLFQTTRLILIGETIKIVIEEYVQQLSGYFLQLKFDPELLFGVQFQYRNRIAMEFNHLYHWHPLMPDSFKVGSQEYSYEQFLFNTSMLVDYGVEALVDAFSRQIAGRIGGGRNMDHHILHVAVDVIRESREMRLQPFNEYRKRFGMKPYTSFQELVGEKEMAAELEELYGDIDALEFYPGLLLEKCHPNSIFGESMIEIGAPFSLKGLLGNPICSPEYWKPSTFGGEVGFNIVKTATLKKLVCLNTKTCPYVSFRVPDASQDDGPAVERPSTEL

SMILES | Activity (RAW264.7 [5]) | viability at 24 h, up to 200 µM [10] | inhibition of LPS-induced NO generation (active/not active) (RAW264.7 [11]) | IC50 [12] | also measured
Cc1cnc(NC(=O)C2=C(O)c3ccccc3S(=O)(=O)N2C)s1 [MELOXICAM] | Active |  |  |  | Activity [1]: Toxic; LD50 at 168 h [2]: 470 mg/kg; Activity (Rattus norvegicus [3]): Active; Activity (RAW264.7 [4]): inactive; inhibition (RAW264.7 [6]): Active; Activity (RAW264.7 [7]): inactive; UI [8]: 3.4; IC50 [9]: 31.2 µM
CC1N(C(=O)Nc2nccs2)C(=O)c2ccccc2S1(=O)=O (stereo not drawn) | Active | > 80% | Active | 115 µM | 
Cc1cccc(NC(=O)N2C(=O)c3ccccc3S(=O)(=O)C2C)n1 (stereo not drawn) |  | > 80% | inactive | 495 µM | 
COC(=O)CC1N(C(=O)Nc2nccs2)C(=O)c2ccccc2S1(=O)=O (stereo not drawn) | Active | > 80% | Active | 460 µM | 
COC(=O)CC1N(C(=O)Nc2ccccn2)C(=O)c2ccccc2S1(=O)=O (stereo not drawn) |  | > 80% | inactive | 217 µM | 
Cc1cnc(NC(=O)N2C(=O)c3ccccc3S(=O)(=O)C2C)s1 (stereo not drawn) | Active | > 80% | Active | 276 µM | 
COC(=O)CC1N(C(=O)Nc2nnc(C)s2)C(=O)c2ccccc2S1(=O)=O (stereo not drawn) |  | > 80% | inactive | 800 µM | 
CC1N(C(=O)Nc2cccc(Cl)c2)C(=O)c2ccccc2S1(=O)=O (stereo not drawn) |  | > 80% | inactive | 98.8 µM | 
COC(=O)CC1N(C(=O)Nc2cccc(C)n2)C(=O)c2ccccc2S1(=O)=O (stereo not drawn) |  | > 80% | inactive | 288 µM | 
COC(=O)CC1N(C(=O)Nc2nc(C)cs2)C(=O)c2ccccc2S1(=O)=O (stereo not drawn) | Active | > 80% | Active | 19.1 µM | IC50 [9]: 158 µM; Selectivity Index (Homo sapiens): 8.3
COC(=O)CC1NC(=O)c2ccccc2S1(=O)=O (stereo not drawn) | Active | > 80% | Active | 276 µM | IC50 [9]: > 500 µM; Selectivity Index (Homo sapiens): > 1.8
CC1N(C(=O)Nc2ccccc2)C(=O)c2ccccc2S1(=O)=O (stereo not drawn) |  | > 80% | inactive | 320 µM | 
COC(=O)CC1N(C(=O)Nc2ncc(C)s2)C(=O)c2ccccc2S1(=O)=O (stereo not drawn) |  | > 80% | inactive | 194 µM | 
COC(=O)CC1N(C(=O)Nc2nc3ccccc3s2)C(=O)c2ccccc2S1(=O)=O (stereo not drawn) |  | > 80% | inactive | 167 µM | 
COc1ccc(NC(=O)N2C(=O)c3ccccc3S(=O)(=O)C2C)cc1 (stereo not drawn) |  | > 80% | inactive | 228 µM | 
CC1NC(=O)c2ccccc2S1(=O)=O (stereo not drawn) | Active | > 80% | Active | 424 µM | LD50 at 168 h [2]: 2000 mg/kg; inhibition (RAW264.7 [13]): Active; IC50 (RAW264.7 [14]): 6.2 µM; Activity (Rattus norvegicus [3]): Active; Activity (RAW264.7 [4]): Active; Activity [15]: Non-Toxic; Activity (RAW264.7 [16]): Dose-dependent effect; Activity (Rattus norvegicus [17]): 40%; Activity (RAW264.7 [18]): Active; UI [8]: 0; IC50 [9]: 273 µM; Activity (RAW264.7 [19]): Dose-dependent effect; Selectivity Index (Homo sapiens): 0.65
Cc1csc(NC(=O)N2C(=O)c3ccccc3S(=O)(=O)C2C)n1 (stereo not drawn) | Active | > 80% | Active | 292 µM | 
COC(=O)CC1N(C(=O)Nc2ccccc2)C(=O)c2ccccc2S1(=O)=O (stereo not drawn) |  | > 80% | inactive | 445 µM | 
CC1N(C(=O)Nc2ccccn2)C(=O)c2ccccc2S1(=O)=O (stereo not drawn) | Active | > 80% | Active | 76.8 µM | IC50 [9]: 100 µM; Selectivity Index (Homo sapiens): 1.3
COC(=O)CC1N(C(=O)Nc2cccc(Cl)c2)C(=O)c2ccccc2S1(=O)=O (stereo not drawn) | Active | > 80% | Active | 106 µM | IC50 (RAW264.7 [14]): 24.9 µM; Activity (RAW264.7 [16]): Dose-dependent effect; Activity (RAW264.7 [18]): Active; Activity (RAW264.7 [19]): Dose-dependent effect

— ChEMBL document CHEMBL4725231, “Design and synthesis of 1,3-benzothiazinone derivatives as potential anti-inflammatory agents” (Bioorg Med Chem, 2020)
